Among the data in patent publication US20260285816A1, “Piperazinyl-Modified Quinazolinyl-Aryl Urea Derivative, And Preparation Method And Use Thereof” (Guangxi Normal University, priority 2025, published 2026) are IC50 values, retold here.

Like-named read-outs stand apart in the source and are kept apart here. A value given as a limit tells only on which side of the number the result lay.

In general, IC50 refers to the concentration needed to halve the response being measured.

Type in all cases: cell-based, human
In one experiment the test system is BxPC-3 cells. Briefly: CCK-8 anti-proliferative assay, BxPC-3. As to conditions: Homo sapiens, BXPC-3, co-incubated 48 h, read-out: Anti-proliferative activity (IC50 ± standard deviation) BxPC-3. The method, boiled down:
(§1)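 Cells seeded at 5,000/well were grown at 37° C. under 5% CO2 to 70% confluency, then exposed in triplicate to 1–30 μM compound (1, 2, 4, 6, 8, 12, 16, 24, 30 μM) for designated durations. CCK-8 was added for 1–4 h, OD read at 450 nm, and IC50 derived from inhibition versus control.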

For a further experiment, the system named is HeLa cells. The experiment can be described thus: CCK-8 anti-proliferative assay, HeLa. As to conditions: Homo sapiens, HeLa, co-incubated 48 h, read-out: Anti-proliferative activity (IC50 ± standard deviation) HeLa. Here is the method: (§2) The obtained quinazolinyl-aryl urea derivatives were screened for compounds with optimal activity using the following method.
(§3) Experimental Procedure for Anti-Proliferative Activity Evaluation: The CCK-8 assay was employed. Cells in logarithmic growth phase were harvested, adjusted to appropriate density, and uniformly seeded into 96-well plates using a multichannel pipette (180 μL cell suspension containing complete medium per well, 5,000 cells/well). Blank control wells (containing basal medium, CCK-8 solution, and DMSO only) were set. Cells were incubated at 37° C. under 5% CO2. After 70% confluency was reached, test compounds (target compounds/positive controls) were added at final concentrations of 1, 2, 4, 6, 8, 12, 16, 24, and 30 μM (3 repeated wells per concentration). Compounds were pre-dissolved in DMSO, sterilized, and diluted with medium before adding 20 μL/well. After co-incubation for designated durations, 10 μL CCK-8 solution was added per well followed by 1-4 h incubation (different cells have different incubation times). […] Inhibition rates were calculated as: (ODcontrol−ODtreatment)/ODcontrol×100%. Median inhibitory concentrations (IC50 values) were derived using Origin v8.0 software.
(In general: Formazan colour is commonly taken as a measure of viable cells.)

The test system of the next experiment is J82 cells. Briefly: CCK-8 anti-proliferative assay, J82. As to conditions: Homo sapiens, J82, co-incubated 48 h, read-out: Anti-proliferative activity (IC50 ± standard deviation) J82. As to the method:
as §2, §3

Another experiment has as its system 143B cells. The experiment can be described thus: CCK-8 anti-proliferative assay, 143B. Particulars: Homo sapiens, 143B, co-incubated 48 h, read-out: Anti-proliferative activity (IC50 ± standard deviation) 143B. The method, boiled down: as §1
The test system of experiment [1] is immortalized ureteral epithelial cells (SV-HUC-1). The experiment can be described thus: CCK-8 anti-proliferative assay, normal cells SV-HUC-1. As to conditions: Homo sapiens, SV-HUC1, normal cells, co-incubated 48 h, read-out: Anti-proliferative activity (IC50 ± standard deviation) SV-HUC-1. As to the method:
as §2, §3

For a further experiment, the system named is UM-UC-3 cells. The experiment can be described thus: CCK-8 anti-proliferative assay, UM-UC-3. As to conditions: Homo sapiens, UMUC3, co-incubated 48 h, read-out: Anti-proliferative activity (IC50 ± standard deviation) UM-UC-3. In outline:
(§4)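 Cells seeded at 5,000/well and grown at 37° C., 5% CO2 to 70% confluency, then treated with compound at final 1, 2, 4, 6, 8, 12, 16, 24 and 30 μM in triplicate.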

A further experiment has as its system SK-OV-3 cells. Briefly: CCK-8 anti-proliferative assay, SK-OV-3. As to conditions: Homo sapiens, SK-OV-3, co-incubated 48 h, read-out: Anti-proliferative activity (IC50 ± standard deviation) SK-OV-3. In outline:
as §4

The subject of experiment [2] is embryonic lung fibroblasts (WI-38). Briefly: CCK-8 anti-proliferative assay, normal cells WI-38. Particulars: Homo sapiens, read-out: Anti-proliferative activity (IC50 ± standard deviation) WI-38. The source says: The obtained quinazolinyl-aryl urea derivatives were screened for compounds with optimal activity using the following method. All cell lines employed in this experiment were of human origin, including: bladder cancer cells: J82, UM-UC-3, T24, 5637, pancreatic cancer cells: BxPC-3, PANC-1, osteosarcoma cells: 143B, MG-63, cervical cancer cells: HeLa, breast cancer cells: MCF-7, NSCLC cells: A549, hepatoblastoma cells: Hep G2, and ovarian cancer cells: SK-OV-3, as well as normal cell lines: immortalized ureteral epithelial cells (SV-HUC-1), embryonic lung fibroblasts (WI-38).
Experimental Procedure for Anti-Proliferative Activity Evaluation: The CCK-8 assay was employed. Cells in logarithmic growth phase were harvested, adjusted to appropriate density, and uniformly seeded into 96-well plates using a multichannel pipette (180 μL cell suspension containing complete medium per well, 5,000 cells/well). Blank control wells (containing basal medium, CCK-8 solution, and DMSO only) were set. Cells were incubated at 37° C. under 5% CO2. After 70% confluency was reached, test compounds (target compounds/positive controls) were added at final concentrations of 1, 2, 4, 6, 8, 12, 16, 24, and 30 μM (3 repeated wells per concentration). Compounds were pre-dissolved in DMSO, sterilized, and diluted with medium before adding 20 μL/well. After co-incubation for designated durations, 10 μL CCK-8 solution was added per well followed by 1-4 h incubation (different cells have different incubation times). The reaction was terminated, and OD (optical density) values at 450 nm were measured using a microplate reader. Inhibition rates were calculated as: (ODcontrol−ODtreatment)/ODcontrol×100%. Median inhibitory concentrations (IC50 values) were derived using Origin v8.0 software.

In a further experiment the test system is PANC-1 cells. The experiment can be described thus: CCK-8 anti-proliferative assay, PANC-1. As to conditions: Homo sapiens, PANC-1, co-incubated 48 h, read-out: Anti-proliferative activity (IC50 ± standard deviation) PANC-1. In outline: as §1
Another experiment concerns MG-63 cells. The experiment can be described thus: CCK-8 anti-proliferative assay, MG-63. As to conditions: Homo sapiens, MG-63, co-incubated 48 h, read-out: Anti-proliferative activity (IC50 ± standard deviation) MG-63. The method, boiled down: as §1
In the next experiment the test system is Hep G2 cells. Briefly: CCK-8 anti-proliferative assay, Hep G2. Particulars: Homo sapiens, HepG2, co-incubated 48 h, read-out: Anti-proliferative activity (IC50 ± standard deviation) Hep G2. In outline: as §1
The next experiment has as its system T24 cells. Briefly: CCK-8 anti-proliferative assay, T24. Particulars: Homo sapiens, T-24, co-incubated 48 h, read-out: Anti-proliferative activity (IC50 ± standard deviation) T24. The method, boiled down: as §1
For another experiment, the system named is A549 cells. Briefly: CCK-8 anti-proliferative assay, A549. As to conditions: Homo sapiens, A549, co-incubated 48 h, read-out: Anti-proliferative activity (IC50 ± standard deviation) A549. The method, boiled down: as §4
The next experiment concerns MCF-7 cells. Briefly: CCK-8 anti-proliferative assay, MCF-7. As to conditions: Homo sapiens, MCF7, co-incubated 48 h, read-out: Anti-proliferative activity (IC50 ± standard deviation) MCF-7. The method, boiled down: as §4
A further experiment deals with 5637 cells. The experiment can be described thus: CCK-8 anti-proliferative assay, 5637. As to conditions: Homo sapiens, co-incubated 48 h, read-out: Anti-proliferative activity (IC50 ± standard deviation) 5637. The method, boiled down:
as §4

Setting [3] is: WI-38, Table 9, co-incubated 48 h.

As to `COc1cc2ncnc(NCc3cccc(NC(=O)Nc4cccc(C)c4)c3)c2cc1OCCCCCCN1CCN(CCN2CCOCC2)CC1` [Compound 8-1c, N-(3-(((7-methoxy-6-((6-(4-(2-morpholinoethyl)piperazin-1-yl)hexyl)oxy)quinazolin-4-yl)amino)methyl)phenyl)-N′-(3-methylphenyl)urea], the IC50 in the experiment on BxPC-3 cells (Table 7) was 16.5 ± 0.92 µM; in the experiment with HeLa cells (Table 8), over 30 µM; with J82 cells (Table 6), 6.05 ± 0.63 µM; with 143B cells (Table 7), 13 ± 0.84 µM; in experiment [1] (Table 9), 16 ± 0.81 µM; with UM-UC-3 cells (Table 6), 14.1 ± 0.82 µM. Also, the 50% inhibitory concentration (IC50) was 9.73 ± 0.69 µM in the experiment on SK-OV-3 cells (Table 9); 13.9 ± 0.73 µM in experiment [2] (setting [3]); over 30 µM in the experiment with PANC-1 cells (Table 7); 7.34 ± 0.65 µM with MG-63 cells (Table 7); 7.27 ± 0.51 µM in the experiment with Hep G2 cells (Table 8); 11.5 ± 0.66 µM in the experiment on T24 cells (Table 6). The IC50 with A549 cells (Table 8) amounted to 18.4 ± 0.98 µM; with MCF-7 cells (Table 8), 25.8 ± 2.53 µM; in the experiment on 5637 cells (Table 6) it was 13 ± 0.85 µM.
Turning to `CCc1ccccc1NC(=O)Nc1cccc(CNc2ncnc3cc(OC)c(OCCCCCCN4CCN(CCN5CCOCC5)CC4)cc23)c1` [Compound 8-1g, N-(3-(((7-methoxy-6-((6-(4-(2-morpholinoethyl)piperazin-1-yl)hexyl)oxy)quinazolin-4-yl)amino)methyl)phenyl)-N′-(2-ethylphenyl)urea], the IC50 in the experiment with BxPC-3 cells (Table 7) was 10.8 ± 0.52 µM; in the experiment with HeLa cells (Table 8) it was 23 ± 0.99 µM; with J82 cells (Table 6), 19.7 ± 0.98 µM; in the experiment on 143B cells (Table 7), 19.3 ± 0.74 µM; in experiment [1] (Table 9), over 30 µM; with UM-UC-3 cells (Table 6) it was 26 ± 1.79 µM. In addition, the IC50 with SK-OV-3 cells (Table 9) is 6.38 ± 0.51 µM; in experiment [2] (setting [3]), over 30 µM; in the experiment with PANC-1 cells (Table 7), 13.1 ± 0.78 µM; in the experiment with MG-63 cells (Table 7), 10.9 ± 0.93 µM; in the experiment with Hep G2 cells (Table 8), 12.7 ± 0.74 µM; in the experiment on T24 cells (Table 6), 24.8 ± 0.62 µM. Besides, the IC50 was 26.4 ± 2.59 µM with A549 cells (Table 8), 20.3 ± 1.88 µM with MCF-7 cells (Table 8) and 22.5 ± 0.79 µM with 5637 cells (Table 6).
For `COc1cc2ncnc(NCc3cccc(NC(=O)Nc4ccc(C)cc4)c3)c2cc1OCCCCCCN1CCN(CCN2CCOCC2)CC1` [Compound 8-1d, N-(3-(((7-methoxy-6-((6-(4-(2-morpholinoethyl)piperazin-1-yl)hexyl)oxy)quinazolin-4-yl)amino)methyl)phenyl)-N′-(4-methylphenyl)urea], the IC50 in the experiment on BxPC-3 cells (Table 7) was 13.7 ± 0.73 µM; in the experiment on HeLa cells (Table 8), 16.1 ± 0.71 µM; in the experiment with J82 cells (Table 6), 5.89 ± 0.57 µM; in the experiment with 143B cells (Table 7), 8.62 ± 0.53 µM; in [1] (Table 9), 12.8 ± 0.66 µM; with UM-UC-3 cells (Table 6) it was 13.2 ± 0.77 µM. For the same molecule, the IC50 with SK-OV-3 cells (Table 9) was determined as 9.26 ± 0.87 µM; in [2] (setting [3]), 12.6 ± 0.92 µM; in the experiment with PANC-1 cells (Table 7) it was 27.4 ± 2.24 µM; in the experiment on MG-63 cells (Table 7) it was 7.73 ± 0.49 µM; in the experiment on Hep G2 cells (Table 8) it was 7.04 ± 0.48 µM; in the experiment with T24 cells (Table 6), 6.59 ± 0.79 µM. Also, the results for the IC50 in the experiment with A549 cells (Table 8), in the experiment with MCF-7 cells (Table 8) and in the experiment with 5637 cells (Table 6) were 15.8 ± 0.84 µM, over 30 µM and 7.72 ± 0.66 µM, respectively.
With `COc1cc2ncnc(NCc3cccc(NC(=O)Nc4ccc(C)cc4)c3)c2cc1OCCCCCCN1CCC(CN2CCN(c3ccccn3)CC2)CC1` [Compound 8-2d, N-(3-(((7-methoxy-6-((6-(4-((4-(pyridin-2-yl)piperazin-1-yl)methyl)piperidin-1-yl)hexyl)oxy)quinazolin-4-yl)amino)methyl)phenyl)-N′-(4-methylphenyl)urea], the IC50 is 9.29 ± 0.73 µM in the experiment with BxPC-3 cells (Table 11); 4.79 ± 0.38 µM in the experiment on HeLa cells (Table 12); 13.8 ± 1.33 µM with J82 cells (Table 10); 6.92 ± 0.39 µM with 143B cells (Table 11); 7.94 ± 0.44 µM in [1] (Table 13); 7.58 ± 0.79 µM with UM-UC-3 cells (Table 10). Moreover, the IC50 with SK-OV-3 cells (Table 12) came out at 6.79 ± 0.62 µM; in experiment [2] (WI-38, Table 13, co-incubated 48 h), 9.79 ± 0.38 µM; in the experiment with PANC-1 cells (Table 11), 25.4 ± 2.04 µM; in the experiment with MG-63 cells (Table 11), 7.29 ± 0.62 µM; in the experiment on Hep G2 cells (Table 12), 3.82 ± 0.25 µM; in the experiment with T24 cells (Table 10), 6.62 ± 0.49 µM. Further, the values for the IC50 in the experiment with A549 cells (Table 13), in the experiment with MCF-7 cells (Table 12) and in the experiment on 5637 cells (Table 10) were 9.23 ± 0.61 µM, 7.92 ± 0.51 µM and 14.3 ± 0.89 µM, respectively.
